#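 96-well plates; 48 h exposure; 5 concentrations. Endpoints by linear interpolation between flanking doses. Not reached: highest tested concentration assigned. Here, GI50 denotes the concentration required for 50% inhibition of growth. TGI: total growth inhibition.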
# Tests used:
# Test in all cases: NCI tumour cell line growth inhibition, 48 h
# [1] = tested on: KM20L2 colon
# [2] = tested on: SNB-75 CNS
# [3] = tested on: DMS 114 small cell lung
# [4] = tested on: SK-MEL-5 melanoma
# [5] = tested on: A498 renal
# [6] = tested on: OVCAR-8 ovarian
# [7] = tested on: SK-MEL-28 melanoma
# [8] = tested on: COLO 205 colon
# [9] = tested on: A549 NSCLC
# [10] = tested on: MOLT-4 leukemia
# [11] = tested on: RPMI-8226 leukemia
# [12] = tested on: SN12C renal
# [13] = tested on: 786-0 renal
# [14] = tested on: OVCAR-4 ovarian
# [15] = tested on: CAKI-1 renal
# [16] = tested on: LOX IMVI melanoma
# [17] = tested on: KM12 colon
# [18] = tested on: LXFL 529 NSCLC
# [19] = tested on: SW-620 colon
# [20] = tested on: HL-60(TB) leukemia
# [21] = tested on: NCI-H460 lung
# [22] = tested on: CCRF-CEM leukemia
# [23] = tested on: RXF 393 renal
# [24] = tested on: HOP-92 NSCLC
# [25] = tested on: NCI-H226 lung
# [26] = tested on: TK-10 renal
# [27] = tested on: SNB-78 CNS
# [28] = tested on: MALME-3M melanoma
# [29] = tested on: SF-268 CNS
# [30] = tested on: IGROV1 ovarian
# [31] = tested on: XF 498 CNS
# [32] = tested on: HOP-62 NSCLC
# [33] = tested on: HOP-18 NSCLC
# [34] = tested on: M14 melanoma
# [35] = tested on: SK-OV-3 ovarian
# [36] = tested on: M19-MEL melanoma
# [37] = tested on: RXF-631 renal
# [38] = tested on: NCI-H522 lung
# [39] = tested on: ACHN renal
# [40] = tested on: NCI-H23 lung
# [41] = tested on: UO-31 renal
# [42] = tested on: DMS 273 small cell lung
# [43] = tested on: U251 CNS
# [44] = tested on: SNB-19 CNS
# [45] = tested on: HT29 colon
# [46] = tested on: HCT-15 colon
# [47] = tested on: UACC-257 melanoma
# [48] = tested on: OVCAR-3 ovarian
# [49] = tested on: OVCAR-5 ovarian
# [50] = tested on: HCC-2998 colon
# [51] = tested on: SF-295 CNS
# [52] = tested on: K-562 leukemia
# [53] = tested on: SK-MEL-2 melanoma
# [54] = tested on: UACC-62 melanoma
# [55] = tested on: DLD-1 colon
# [56] = tested on: SF-539 CNS
# [57] = tested on: EKVX NSCLC
# [58] = tested on: HCT-116 colon
# [59] = tested on: SN12K1 renal
# [60] = tested on: P388 leukemia
# [61] = tested on: MCF7 breast
# [62] = tested on: NCI/ADR-RES ovarian
# [63] = tested on: P388/ADR leukemia
smiles,measurement,setting,value
CC12CCCCC1(C)C2Sc1ccccc1 (configuration not stated),TGI,[1],> 100 µM
same,TGI,[2],> 100 µM
same,TGI,[3],> 77.8 µM
same,TGI,[4],> 63.5 µM
same,TGI,[5],98.2 µM
same,TGI,[6],> 100 µM
same,TGI,[7],> 100 µM
same,TGI,[8],> 100 µM
same,TGI,[9],> 100 µM
same,TGI,[10],41.6 µM
same,TGI,[11],40.3 µM
same,TGI,[12],> 100 µM
same,TGI,[13],> 100 µM
same,TGI,[14],> 100 µM
same,TGI,[15],> 100 µM
same,TGI,[16],> 61 µM
same,TGI,[17],> 100 µM
same,TGI,[18],> 100 µM
same,TGI,[19],> 100 µM
same,TGI,[20],36.9 µM
same,TGI,[21],> 100 µM
same,TGI,[22],44.4 µM
same,TGI,[23],> 70.3 µM
same,TGI,[24],97 µM
same,TGI,[25],> 100 µM
same,TGI,[26],> 100 µM
same,TGI,[27],> 80.1 µM
same,TGI,[28],> 100 µM
same,TGI,[29],> 100 µM
same,TGI,[30],> 100 µM
same,TGI,[31],66.3 µM
same,TGI,[32],> 100 µM
same,TGI,[33],> 100 µM
same,TGI,[34],> 100 µM
same,TGI,[35],> 100 µM
same,TGI,[36],> 94.5 µM
same,TGI,[37],> 100 µM
same,TGI,[38],> 69.3 µM
same,TGI,[39],> 100 µM
same,TGI,[40],> 100 µM
same,TGI,[41],> 100 µM
same,TGI,[42],> 100 µM
same,TGI,[43],> 67.2 µM
same,TGI,[44],> 100 µM
same,TGI,[45],> 100 µM
same,TGI,[46],> 100 µM
same,TGI,[47],> 100 µM
same,TGI,[48],> 100 µM
same,TGI,[49],> 100 µM
same,TGI,[50],> 100 µM
same,TGI,[51],> 100 µM
same,TGI,[52],19.9 µM
same,TGI,[53],50.7 µM
same,TGI,[54],> 100 µM
same,TGI,[55],> 100 µM
same,TGI,[56],> 100 µM
same,TGI,[57],> 96.8 µM
same,TGI,[58],> 100 µM
COc1cccc(-n2c3nc(=O)n(C)c(=O)c-3nc3ccccc32)c1,TGI,[1],62.6 µM
same,TGI,[2],76.2 µM
same,TGI,[3],25.4 µM
same,TGI,[4],13.8 µM
same,TGI,[5],> 100 µM
same,TGI,[6],49.6 µM
same,TGI,[7],61.4 µM
same,TGI,[8],13.1 µM
same,TGI,[9],52.2 µM
same,TGI,[10],40.6 µM
same,TGI,[11],> 100 µM
same,TGI,[12],30.8 µM
same,TGI,[13],> 100 µM
same,TGI,[14],25.2 µM
same,TGI,[15],> 100 µM
same,TGI,[17],> 100 µM
same,TGI,[18],81.8 µM
same,TGI,[19],51.6 µM
same,TGI,[20],28.2 µM
same,TGI,[21],33.4 µM
same,TGI,[22],79.1 µM
same,TGI,[24],72.5 µM
same,TGI,[25],55.6 µM
same,TGI,[26],> 100 µM
same,TGI,[27],> 100 µM
same,TGI,[28],29.8 µM
same,TGI,[29],53.9 µM
same,TGI,[30],59.6 µM
same,TGI,[31],42.7 µM
same,TGI,[32],> 100 µM
same,TGI,[33],> 100 µM
same,TGI,[34],27.7 µM
same,TGI,[35],> 100 µM
same,TGI,[36],6.1 µM
same,TGI,[37],76.7 µM
same,TGI,[38],97.5 µM
same,TGI,[39],47.3 µM
same,TGI,[40],62 µM
same,TGI,[41],> 100 µM
same,TGI,[42],30.9 µM
same,TGI,[43],38.2 µM
same,TGI,[44],74.3 µM
same,TGI,[45],40.8 µM
same,TGI,[46],66.3 µM
same,TGI,[47],33.8 µM
same,TGI,[48],8.8 µM
same,TGI,[49],37.2 µM
same,TGI,[50],38.9 µM
same,TGI,[51],29.2 µM
same,TGI,[52],> 100 µM
same,TGI,[53],56 µM
same,TGI,[54],19.5 µM
same,TGI,[55],96.1 µM
same,TGI,[56],27.8 µM
same,TGI,[57],82.1 µM
same,TGI,[58],> 100 µM
Cc1[nH]c(=O)[nH]c(=O)c1/C=C/C(=O)O,TGI,[1],> 1000 µM
same,TGI,[2],> 1000 µM
same,TGI,[3],> 1000 µM
same,TGI,[4],> 1000 µM
same,TGI,[5],> 1000 µM
same,TGI,[6],> 1000 µM
same,TGI,[7],> 1000 µM
same,TGI,[8],> 1000 µM
same,TGI,[9],> 1000 µM
same,TGI,[10],> 1000 µM
same,TGI,[11],> 1000 µM
same,TGI,[12],> 1000 µM
same,TGI,[14],> 1000 µM
same,TGI,[15],> 1000 µM
same,TGI,[16],> 1000 µM
same,TGI,[59],> 1000 µM
same,TGI,[17],> 1000 µM
same,GI50,[60],> 1000 µM
same,TGI,[60],> 1000 µM
same,TGI,[19],> 1000 µM
same,TGI,[20],> 1000 µM
same,TGI,[21],> 1000 µM
same,TGI,[22],> 1000 µM
same,TGI,[23],> 1000 µM
same,TGI,[24],62.6 µM
same,TGI,[25],> 1000 µM
same,TGI,[27],> 1000 µM
same,TGI,[28],> 1000 µM
same,TGI,[61],> 1000 µM
same,TGI,[29],> 1000 µM
same,TGI,[30],> 1000 µM
same,TGI,[31],> 1000 µM
same,TGI,[32],> 1000 µM
same,TGI,[33],> 1000 µM
same,TGI,[35],> 1000 µM
same,TGI,[62],> 1000 µM
same,TGI,[36],> 1000 µM
same,TGI,[38],> 1000 µM
same,TGI,[40],> 1000 µM
same,TGI,[41],> 1000 µM
same,TGI,[42],> 1000 µM
same,TGI,[43],> 1000 µM
same,TGI,[63],> 1000 µM
same,TGI,[44],> 1000 µM
same,TGI,[45],> 1000 µM
same,TGI,[46],> 1000 µM
same,TGI,[47],> 1000 µM
same,TGI,[48],> 1000 µM
same,TGI,[49],> 1000 µM
same,TGI,[50],> 1000 µM
same,TGI,[51],> 1000 µM
same,TGI,[52],> 1000 µM
same,TGI,[53],> 1000 µM
same,TGI,[54],> 1000 µM
same,TGI,[55],> 1000 µM
same,TGI,[56],> 1000 µM
same,TGI,[57],> 1000 µM
same,TGI,[58],> 1000 µM
